Results published in patent US20100227917A1, “EYE DROP CONTAINING DIBENZ[b,e]OXEPIN DERIVATIVE” (priority 2007, published 2010).

Experiments:
Type in all cases: physicochemical
[1] = External observation of olopatadine hydrochloride mixtures (Test Examples 1 and 2); details: for External appearance after 1 hour stirring: about 23° C.; for External appearance after 43 hours: left at about 23° C.
Procedure: (§1) Each of the resulting mixtures was stirred with a magnetic stirrer at room temperature (about 23° C.) for 1 hour, and external observation and pH measurement were carried out. Then, an aqueous solution of sodium hydroxide was added to each mixture to prepare mixtures of pH 4 and 7, and external observation and pH measurement were carried out. Then, the mixtures were left at room temperature (about 23° C.) for 43 hours, and external observation, pH measurement, solubility measurement, and osmotic pressure measurement were carried out.
(§2) Each of the resulting mixtures was stirred with a magnetic stirrer at room temperature (about 23° C.) for 1 hour, and external observation and pH measurement were carried out. Then, an aqueous solution of sodium hydroxide was added to each mixture to prepare a mixture of pH 4, and external observation and pH measurement were carried out. Then, the mixture was left at room temperature (about 23° C.) for 43 hours, and external observation, pH measurement, solubility measurement, and osmotic pressure measurement were carried out in the same manner as in Test Example 1.

[2] = pH measurement
Procedure: as §1, §2

[3] = Osmotic pressure measurement with osmometer; details: ratio to physiological saline (293 mOsm), after 43 hours
Procedure: An osmotic pressure was measured using an osmometer (Osmostat OM6040, Arkray, Inc.).
Further, a ratio to the osmotic pressure of physiological saline was calculated according to the following equation.
(osmotic pressure ratio)=(osmotic pressure of test liquid)/(osmotic pressure of physiological saline)(293mOsm)

[4] = 100 mg in 10 mL Aqueous solution of 0.9% NaCl
[5] = 100 mg in 10 mL Buffer at pH 4.0 containing 0.9% NaCl
[6] = 100 mg in 10 mL Buffer at pH 7.0 containing 0.9% NaCl
[7] = 100 mg in 10 mL glutamic acid-sodium glutamate buffer at pH 4.0, column prepared to pH 4.0
[8] = 100 mg in 10 mL glutamic acid-sodium glutamate buffer at pH 4.0, column prepared to pH 7.0
[9] = 100 mg in 10 mL glutamic acid-sodium glutamate buffer at pH 7.0, column prepared to pH 4.0
[10] = 100 mg in 10 mL glutamic acid-sodium glutamate buffer at pH 7.0, column prepared to pH 7.0
[11] = Aqueous solution of 0.9% NaCl, prepared to pH 4
[12] = Buffer at pH 4.0 containing 0.9% NaCl, prepared to pH 4
[13] = Buffer at pH 7.0 containing 0.9% NaCl, prepared to pH 4
[14] = glutamic acid-sodium glutamate buffer at pH 4.0, prepared to pH 4.0
[15] = glutamic acid-sodium glutamate buffer at pH 4.0, prepared to pH 7.0
[16] = glutamic acid-sodium glutamate buffer at pH 7.0, prepared to pH 4.0
[17] = glutamic acid-sodium glutamate buffer at pH 7.0, prepared to pH 7.0

With `CN(C)CC/C=C1/c2ccccc2COc2ccc(CC(=O)O)cc21.Cl` [olopatadine hydrochloride, (Z)-11-(3-dimethylaminopropylidene)-6,11-dihydrodibenz[b,e]oxepin-2-acetic acid hydrochloride] the “External appearance after 1 hour stirring” value [1, 4] was “Turbid in white”, the “External appearance after 1 hour stirring” value [1, 5] was “Turbid in white” and the “External appearance after 1 hour stirring” value [1, 6] was “Almost clear”. The “External appearance after 1 hour stirring” value [1, 7] was “Clear”, the “External appearance after 1 hour stirring” value [1, 8] was “Clear” and the “External appearance after 1 hour stirring” value [1, 9] was “Clear”. For the same molecule, the “External appearance after 1 hour stirring” value [1, 10] was “Clear”, the “External appearance after pH adjustment” value [1, 11] was “Turbid in white” and the “External appearance after 43 hours” value [1, 11] was “Turbid in white”. The “External appearance after pH adjustment” value [1, 12] was “Turbid in white”, the “External appearance after 43 hours” value [1, 12] was “Turbid in white” and the “External appearance after pH adjustment” value [1, 13] was “Almost clear”. For the same molecule, the “External appearance after 43 hours” value [1, 13] was “Turbid in white”, the “External appearance after pH adjustment” value [1, 14] was “Clear” and the “External appearance after 43 hours” value [1, 14] was “Turbid in white”. The “External appearance after pH adjustment” value [1, 15] was “Turbid in white”, the “External appearance after 43 hours” value [1, 15] was “Turbid in white” and the “External appearance after pH adjustment” value [1, 16] was “Clear”. The “External appearance after pH adjustment” value [1, 17] was “Turbid in white”, the “External appearance after 43 hours” value [1, 17] was “Turbid in white” and the “pH after 1 hour stirring” value [2, 4] was 3.0. For the same molecule, the “pH after 1 hour stirring” value [2, 5] was 3.6, the “pH after 1 hour stirring” value [2, 6] was 4.1 and the “pH after 1 hour stirring” value [2, 7] was 3.3. The “pH after 1 hour stirring” value [2, 8] was 3.3, the “pH after 1 hour stirring” value [2, 9] was 4.0 and the “pH after 1 hour stirring” value [2, 10] was 4.0. The “pH adjustment (actual measurement value)” value [2, 11] was 3.8, the “pH after 43 hours” value [2, 11] was 3.7 and the “pH adjustment (actual measurement value)” value [2, 12] was 3.8. For the same molecule, the “pH after 43 hours” value [2, 12] was 3.8, the “pH adjustment (actual measurement value)” value [2, 13] was 4.1 and the “pH after 43 hours” value [2, 13] was 3.9. The “pH adjustment (actual measurement value)” value [2, 14] was 4.1, the “pH after 43 hours” value [2, 14] was 3.9 and the “pH adjustment (actual measurement value)” value [2, 15] was 6.9. For the same molecule, the “pH after 43 hours” value [2, 15] was 6.9, the “pH adjustment (actual measurement value)” value [2, 16] was 4.0 and the “pH after 43 hours” value [2, 16] was 3.7. The “pH adjustment (actual measurement value)” value [2, 17] was 6.9, the “pH after 43 hours” value [2, 17] was 6.9 and the Osmotic pressure ratio [3, 11] was 1.085. It also gave an Osmotic pressure ratio [3, 12] of 1.167, an Osmotic pressure ratio [3, 13] of 1.201 and an Osmotic pressure ratio [3, 14] of 0.290. The Osmotic pressure ratio [3, 15] was 0.403, the Osmotic pressure ratio [3, 16] was 0.270 and the Osmotic pressure ratio [3, 17] was 0.379.
